Consider 7 compounds from patent publication US9340511B2, “Process for making isoquinoline compounds” (FIBROGEN, INC., priority 2012, dated 2016).

This experiment has as its system Hep3B cells. The experiment can be described thus: Cell-Based EPO Assay. The note with it: 30 μM compound in DMSO compared to DMSO only control, 72 hours, value minus vehicle control. On the set-up: species or system human. The method, then: Cell-Based EPO Assay Hep3B cells (human hepatocellular carcinoma cells from ATCC, cat # HB-8064) were plated at 25,000 cells per well 96 well plates. The next day, the cells were washed once with DMEM (Cellgro, cat #10-013-CM)+0.5% fetal bovine serum (Cellgro, cat #35-010-CV) and incubated with various concentrations of compound or vehicle control (0.15% DMSO) in DMEM+0.5% fetal bovine serum for 72 hours. Cell free culture supernatants were generated by transfer to a conical bottom 96 well plate and centrifugation for 5 minutes at 2000 rpm. The supernatant was quantitated for EPO using a human EPO ELISA kit (R&D Systems, cat # DEP 00). The EPO values for the compounds reported herein (e.g., Table 1) are the measured value for cells plus compound minus the value for the vehicle control for the same cell preparation. The EPO values for the vehicle control for the cell preparations used in experiments reported herein varied from 0-12.5 mIU/ml.

Take `Cc1nc(C(=O)NCC(=O)O)c(O)c2c(Oc3ccccc3)cccc12` [Compound 1f, 2-(4-hydroxy-1-methyl-5-phenoxyisoquinoline-3-carboxamido)acetic acid]: the “Cell EPO* (mIU/ml)” value worked out at 98.6 mIU/ml. Then `Cc1nc(C(=O)NCC(=O)O)c(O)c2cc(Oc3ccccc3)ccc12` [Compound 2f, 2-(4-hydroxy-1-methyl-6-phenoxyisoquinoline-3-carboxamido)acetic acid], with 78 mIU/ml. Then `Cc1nc(C(=O)NCC(=O)O)c(O)c2cccc(Oc3ccccc3)c12` [Compound 4f, 2-(4-hydroxy-1-methyl-8-phenoxyisoquinoline-3-carboxamido)acetic acid], with 52 mIU/ml; and `COc1ccc(Oc2ccc3c(O)c(C(=O)NCC(=O)O)nc(C)c3c2)cc1` [Compound 5f, 2-[4-hydroxy-1-methyl-7-(4-methoxy-phenoxy)-isoquinoline-3-carboxamido]acetic acid], with 209 mIU/ml; and `COc1ccc(Oc2ccc3c(C)nc(C(=O)NCC(=O)O)c(O)c3c2)cc1` [Compound 6f, 2-[4-hydroxy-1-methyl-6-(4-methoxy-phenoxy)-isoquinoline-3-carboxamido]acetic acid], with 191 mIU/ml.

In the case of `Cc1nc(C(=O)NCC(=O)O)c(O)c2ccc(Oc3cc(F)cc(F)c3)cc12` [Compound 7f, 2-[4-hydroxy-1-methyl-7-(3,5-difluoro-phenoxy)-isoquinoline-3-carboxamido]acetic acid], the “Cell EPO* (mIU/ml)” value amounted to 225 mIU/ml. Next, `Cc1nc(C(=O)NCC(=O)O)c(O)c2cc(Oc3cc(F)cc(F)c3)ccc12` [Compound 8f, 2-[4-hydroxy-1-methyl-6-(3,5-difluoro-phenoxy)-isoquinoline-3-carboxamido]acetic acid]: 105 mIU/ml.
